ChEMBL document CHEMBL4342408, “Therapeutic potentials of plant iridoids in Alzheimer's and Parkinson's diseases: A review” (Eur J Med Chem, 2019)

Assays:
Homo sapiens = organism: Homo sapiens; assay: Inhibition of human tau (441 residues) P301L mutant expressed in Escherichia coli BL21(DE3) assessed as reduction in aggregation at 10 uM relative to control
[1] = Inhibition of human tau (441 residues) P301L mutant expressed in Escherichia coli BL21(DE3) assessed as reduction in aggregation
[2] = biological target: Microtubule-associated protein tau (Homo sapiens) (UniProt P10636); assay: Inhibition of human tau (441 residues) expressed in Escherichia coli BL21(DE3) assessed as reduction in aggregation at 10 uM relative to control
[3] = Inhibition of beta secretase (unknown origin); set-up: species or system Homo sapiens

Chain of Microtubule-associated protein tau (Homo sapiens) (P10636 whole entry): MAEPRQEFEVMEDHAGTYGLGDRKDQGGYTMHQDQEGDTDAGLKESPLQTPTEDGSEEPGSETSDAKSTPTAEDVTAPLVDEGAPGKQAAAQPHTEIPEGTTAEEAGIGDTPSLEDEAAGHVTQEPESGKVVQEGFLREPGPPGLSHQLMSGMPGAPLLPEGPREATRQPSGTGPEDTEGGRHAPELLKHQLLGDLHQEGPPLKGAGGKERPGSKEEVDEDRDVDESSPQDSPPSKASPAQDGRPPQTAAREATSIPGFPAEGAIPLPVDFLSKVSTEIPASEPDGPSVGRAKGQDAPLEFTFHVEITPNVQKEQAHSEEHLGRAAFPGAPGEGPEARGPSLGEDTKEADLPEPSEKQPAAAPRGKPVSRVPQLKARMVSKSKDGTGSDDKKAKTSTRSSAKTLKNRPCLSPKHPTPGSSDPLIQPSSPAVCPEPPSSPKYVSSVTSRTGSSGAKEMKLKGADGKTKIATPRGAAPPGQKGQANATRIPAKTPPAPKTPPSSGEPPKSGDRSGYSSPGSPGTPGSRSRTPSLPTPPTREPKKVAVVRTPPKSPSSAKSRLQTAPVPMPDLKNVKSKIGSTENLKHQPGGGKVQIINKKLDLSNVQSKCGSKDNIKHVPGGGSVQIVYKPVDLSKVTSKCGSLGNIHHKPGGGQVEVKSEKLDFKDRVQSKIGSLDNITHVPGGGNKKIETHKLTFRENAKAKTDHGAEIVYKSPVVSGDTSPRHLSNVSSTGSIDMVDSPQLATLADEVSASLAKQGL

An inhibition (Homo sapiens) of 84%, an IC50 [1] of 1.3 µM and an inhibition [2] of 79% were found for C/C=C1/[C@H](O)OC=C(C(=O)OC)[C@H]1CC(=O)OCCc1ccc(O)c(O)c1 in this work.
A Ki [3] of 55 µM was found for COC(=O)C1=CO[C@@H](O[C@@H]2O[C@H](CO)[C@@H](O)[C@H](O)[C@H]2O)[C@@H]2[C@@H](C)[C@@H](O)C[C@H]12 [LOGANIN] in this work.
